The NIST ThermoML archive (doi:10.1016/j.jct.2016.03.030)
± gives the expanded uncertainty stated by the source.

Experiments:
[1] = Molar enthalpy of transition or fusion; conditions: DSC
[2] = for viscosity: 100 kPa, Liquid, Falling or rolling sphere viscometry
[3] = xn = mol fraction of the nth substance listed; conditions: 100 kPa, Liquid, x2 = 0; for viscosity: Falling or rolling sphere viscometry; for mass density: Vibrating tube method

| Structure (SMILES) | Molar enthalpy of transition or fusion ([1]; Crystal 1) [kcal/mol] | Normal melting temperature ([2]; Crystal 1, DTA) [°C] | viscosity ([3]; 298.15 K) [mPa·s] | viscosity ([3]; 303.15 K) [mPa·s] | viscosity ([3]; 308.15 K) [mPa·s] | viscosity ([3]; 313.15 K) [mPa·s] | viscosity ([3]; 318.15 K) [mPa·s] | mass density ([3]; 318.15 K) [kg/m3] | viscosity ([3]; 323.15 K) [mPa·s] | mass density ([3]; 323.15 K) [kg/m3] | viscosity ([3]; 328.15 K) [mPa·s] | mass density ([3]; 328.15 K) [kg/m3] | viscosity ([3]; 333.15 K) [mPa·s] | mass density ([3]; 333.15 K) [kg/m3] | viscosity ([3]; 338.15 K) [mPa·s] | mass density ([3]; 338.15 K) [kg/m3] | viscosity ([3]; 343.15 K) [mPa·s] | mass density ([3]; 343.15 K) [kg/m3] | other results |
| --- | --- | --- | --- | --- | --- | --- | --- | --- | --- | --- | --- | --- | --- | --- | --- | --- | --- | --- | --- |
| CCCCC[N+]1(C)CCCCC1.[Br-] [1-methyl-1-pentylpiperidinium bromide] | 2.11 ± 0.263 | 173.7 ± 0.41 |  |  |  |  |  |  |  |  |  |  |  |  |  |  |  |  |  |
| CCCC[N+]1(C)CCOCC1.[Br-] [4-butyl-4-methylmorpholinium bromide] | 3.37 ± 0.263 | 211.32 ± 0.41 |  |  |  |  |  |  |  |  |  |  |  |  |  |  |  |  |  |
| CCCCC[N+]1(C)CCOCC1.[Br-] [4-methyl-4-pentylmorpholinium bromide] | 1.94 ± 0.263 | 194 ± 0.41 |  |  |  |  |  |  |  |  |  |  |  |  |  |  |  |  |  |
| CCC[N+]1(C)CCOCC1.[Br-] [4-methyl-4-propylmorpholinium bromide] | 2.72 ± 0.263 | 180.79 ± 0.41 |  |  |  |  |  |  |  |  |  |  |  |  |  |  |  |  | Molar enthalpy of transition or fusion ([1]; Crystal 2): 0.55 ± 0.239 kcal/mol; Triple point temperature ([2]; Crystal 2, DSC): 341.13 ± 0.77 K |
| O [water] |  |  |  |  |  |  |  |  |  |  |  |  |  |  |  |  |  |  | viscosity ([2]; 298.15 K): 0.912 ± 0.091 mPa·s; viscosity ([2]; 303.15 K): 0.819 ± 0.082 mPa·s; viscosity ([2]; 308.15 K): 0.739 ± 0.074 mPa·s; viscosity ([2]; 313.15 K): 0.671 ± 0.067 mPa·s; viscosity ([2]; 318.15 K): 0.611 ± 0.061 mPa·s; viscosity ([2]; 323.15 K): 0.559 ± 0.056 mPa·s; viscosity ([2]; 328.15 K): 0.514 ± 0.052 mPa·s; viscosity ([2]; 333.15 K): 0.474 ± 0.048 mPa·s; viscosity ([2]; 338.15 K): 0.439 ± 0.044 mPa·s; viscosity ([2]; 343.15 K): 0.408 ± 0.041 mPa·s; Normal melting temperature ([2]; Crystal, visual observation): 0.00 ± 0.39 °C |
| O [water] + CCCCC[N+]1(C)CCCCC1.[Br-] |  |  | 0.912 ± 0.091 | 0.819 ± 0.082 | 0.739 ± 0.074 | 0.671 ± 0.067 | 0.611 ± 0.061 | 990.1 ± 1 | 0.559 ± 0.056 | 987.9 ± 1 | 0.514 ± 0.052 | 985.6 ± 1 | 0.474 ± 0.048 | 983.2 ± 1 | 0.439 ± 0.044 | 980.3 ± 1 | 0.408 ± 0.041 | 978.1 ± 1 |  |
| O [water] + CCCCC[N+]1(C)CCOCC1.[Br-] |  |  | 0.912 ± 0.091 | 0.819 ± 0.082 | 0.739 ± 0.074 | 0.671 ± 0.067 | 0.611 ± 0.061 | 990.1 ± 1 | 0.559 ± 0.056 | 987.9 ± 1 | 0.514 ± 0.052 | 985.6 ± 1 | 0.474 ± 0.048 | 983.2 ± 1 | 0.439 ± 0.044 | 980.3 ± 1 | 0.408 ± 0.041 | 978.1 ± 1 |  |
| O [water] + CCCC[N+]1(C)CCOCC1.[Br-] |  |  | 0.912 ± 0.091 | 0.819 ± 0.082 | 0.739 ± 0.074 | 0.671 ± 0.067 | 0.611 ± 0.061 | 990.1 ± 1 | 0.559 ± 0.056 | 987.9 ± 1 | 0.514 ± 0.052 | 985.6 ± 1 | 0.474 ± 0.048 | 983.2 ± 1 | 0.439 ± 0.044 | 980.3 ± 1 | 0.408 ± 0.041 | 978.1 ± 1 |  |
| O [water] + CCC[N+]1(C)CCOCC1.[Br-] |  |  | 0.912 ± 0.091 | 0.819 ± 0.082 | 0.739 ± 0.074 | 0.671 ± 0.067 | 0.611 ± 0.061 | 990.1 ± 1 | 0.559 ± 0.056 | 987.9 ± 1 | 0.514 ± 0.052 | 985.6 ± 1 | 0.474 ± 0.048 | 983.2 ± 1 | 0.439 ± 0.044 | 980.3 ± 1 | 0.408 ± 0.041 | 978.1 ± 1 |  |
